Tests used:
p300 = target: T1, p300 (Homo sapiens, UniProt Q09472); assay: P300 degradation, HiBit technology in A549 P300 HiBit cells (2 h); type: cell-based; conditions: 2 hrs post treatment; for Dmax: A549, A549 P300 HiBit cells; for DC50: A549 P300 HiBit cells
T1 construct: host or cells: A549 P300 HiBit cells
In short: (§1)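 Cells: A549 HiBiT-tagged lines, 0.2×10^4/well, F-12K + 10% HI-FBS, equilibrated overnight. Tx: serial dilution of cpd (10 mM DMSO stock). Readout: HiBiT lytic reagent, 10 min RT shaking, luminescence → potency, Dmax.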

CBP = target: T2, CBP (Homo sapiens, UniProt Q92793); assay: CBP degradation, HiBit technology in A549 CBP HiBit cells (24 h); type: cell-based; conditions: 24 hrs post treatment
T2 construct: host or cells: A549 CBP HiBit cells
T2 sequence (Q92793 whole entry): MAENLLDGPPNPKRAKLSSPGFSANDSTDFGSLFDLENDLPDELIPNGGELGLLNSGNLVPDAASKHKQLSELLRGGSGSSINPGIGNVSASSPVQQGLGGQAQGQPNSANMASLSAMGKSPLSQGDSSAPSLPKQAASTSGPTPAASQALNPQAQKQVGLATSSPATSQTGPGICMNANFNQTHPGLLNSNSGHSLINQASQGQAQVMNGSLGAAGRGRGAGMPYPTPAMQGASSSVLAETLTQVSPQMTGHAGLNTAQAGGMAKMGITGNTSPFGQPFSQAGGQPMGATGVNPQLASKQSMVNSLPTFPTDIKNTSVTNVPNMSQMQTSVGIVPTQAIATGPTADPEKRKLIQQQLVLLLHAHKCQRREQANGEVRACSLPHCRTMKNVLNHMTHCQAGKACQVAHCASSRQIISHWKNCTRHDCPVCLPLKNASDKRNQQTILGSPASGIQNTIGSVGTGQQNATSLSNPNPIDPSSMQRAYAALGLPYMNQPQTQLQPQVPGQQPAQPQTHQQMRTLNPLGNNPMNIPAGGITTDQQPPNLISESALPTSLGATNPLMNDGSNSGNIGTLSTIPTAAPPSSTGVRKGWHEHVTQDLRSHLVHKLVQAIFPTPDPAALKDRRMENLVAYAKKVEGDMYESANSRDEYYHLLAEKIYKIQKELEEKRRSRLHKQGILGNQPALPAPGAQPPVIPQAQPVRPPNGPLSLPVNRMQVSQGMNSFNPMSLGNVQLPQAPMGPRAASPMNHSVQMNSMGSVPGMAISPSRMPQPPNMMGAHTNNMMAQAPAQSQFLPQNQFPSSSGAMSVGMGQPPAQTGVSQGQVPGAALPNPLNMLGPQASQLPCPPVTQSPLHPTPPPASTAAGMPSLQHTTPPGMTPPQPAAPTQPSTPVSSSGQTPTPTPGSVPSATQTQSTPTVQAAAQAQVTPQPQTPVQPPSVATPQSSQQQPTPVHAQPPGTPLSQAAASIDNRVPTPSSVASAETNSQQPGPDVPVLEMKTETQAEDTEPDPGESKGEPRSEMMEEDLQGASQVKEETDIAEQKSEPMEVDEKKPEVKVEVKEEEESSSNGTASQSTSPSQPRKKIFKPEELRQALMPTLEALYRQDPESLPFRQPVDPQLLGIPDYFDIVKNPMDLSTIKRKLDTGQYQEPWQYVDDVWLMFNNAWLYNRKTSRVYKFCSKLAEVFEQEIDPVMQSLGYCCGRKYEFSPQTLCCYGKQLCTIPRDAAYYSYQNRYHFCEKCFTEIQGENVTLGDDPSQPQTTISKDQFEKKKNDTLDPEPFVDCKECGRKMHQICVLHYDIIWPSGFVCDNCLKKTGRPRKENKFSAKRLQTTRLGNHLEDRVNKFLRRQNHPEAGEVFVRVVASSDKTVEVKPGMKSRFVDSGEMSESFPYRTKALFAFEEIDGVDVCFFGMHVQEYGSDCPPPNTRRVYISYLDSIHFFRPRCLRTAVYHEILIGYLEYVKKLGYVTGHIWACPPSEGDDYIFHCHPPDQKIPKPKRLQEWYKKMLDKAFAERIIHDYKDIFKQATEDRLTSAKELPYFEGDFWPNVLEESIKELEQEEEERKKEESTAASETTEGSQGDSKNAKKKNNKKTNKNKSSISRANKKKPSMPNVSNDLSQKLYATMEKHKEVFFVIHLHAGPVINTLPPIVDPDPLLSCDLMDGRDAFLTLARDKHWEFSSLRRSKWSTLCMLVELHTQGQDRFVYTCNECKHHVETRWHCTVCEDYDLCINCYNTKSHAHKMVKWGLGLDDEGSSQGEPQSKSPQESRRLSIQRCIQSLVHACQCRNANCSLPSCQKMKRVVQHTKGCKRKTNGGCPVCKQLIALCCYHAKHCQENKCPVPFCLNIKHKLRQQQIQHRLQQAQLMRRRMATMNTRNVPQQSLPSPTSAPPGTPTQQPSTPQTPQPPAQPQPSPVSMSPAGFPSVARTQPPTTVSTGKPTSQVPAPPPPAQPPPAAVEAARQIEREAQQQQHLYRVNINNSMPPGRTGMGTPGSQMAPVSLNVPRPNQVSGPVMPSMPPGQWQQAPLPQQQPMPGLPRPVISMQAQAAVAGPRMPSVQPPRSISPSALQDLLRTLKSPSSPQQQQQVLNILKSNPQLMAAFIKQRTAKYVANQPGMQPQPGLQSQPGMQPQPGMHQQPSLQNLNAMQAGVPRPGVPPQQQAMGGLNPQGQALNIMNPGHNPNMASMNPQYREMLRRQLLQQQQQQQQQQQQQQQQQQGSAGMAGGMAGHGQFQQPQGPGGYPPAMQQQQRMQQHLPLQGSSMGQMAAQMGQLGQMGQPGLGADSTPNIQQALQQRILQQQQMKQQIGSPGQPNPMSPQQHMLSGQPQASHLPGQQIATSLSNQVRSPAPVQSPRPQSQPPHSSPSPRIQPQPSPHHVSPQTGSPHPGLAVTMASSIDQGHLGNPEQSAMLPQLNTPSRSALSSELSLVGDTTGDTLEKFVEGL
In short: as §1

T1 sequence (Q09472 whole entry): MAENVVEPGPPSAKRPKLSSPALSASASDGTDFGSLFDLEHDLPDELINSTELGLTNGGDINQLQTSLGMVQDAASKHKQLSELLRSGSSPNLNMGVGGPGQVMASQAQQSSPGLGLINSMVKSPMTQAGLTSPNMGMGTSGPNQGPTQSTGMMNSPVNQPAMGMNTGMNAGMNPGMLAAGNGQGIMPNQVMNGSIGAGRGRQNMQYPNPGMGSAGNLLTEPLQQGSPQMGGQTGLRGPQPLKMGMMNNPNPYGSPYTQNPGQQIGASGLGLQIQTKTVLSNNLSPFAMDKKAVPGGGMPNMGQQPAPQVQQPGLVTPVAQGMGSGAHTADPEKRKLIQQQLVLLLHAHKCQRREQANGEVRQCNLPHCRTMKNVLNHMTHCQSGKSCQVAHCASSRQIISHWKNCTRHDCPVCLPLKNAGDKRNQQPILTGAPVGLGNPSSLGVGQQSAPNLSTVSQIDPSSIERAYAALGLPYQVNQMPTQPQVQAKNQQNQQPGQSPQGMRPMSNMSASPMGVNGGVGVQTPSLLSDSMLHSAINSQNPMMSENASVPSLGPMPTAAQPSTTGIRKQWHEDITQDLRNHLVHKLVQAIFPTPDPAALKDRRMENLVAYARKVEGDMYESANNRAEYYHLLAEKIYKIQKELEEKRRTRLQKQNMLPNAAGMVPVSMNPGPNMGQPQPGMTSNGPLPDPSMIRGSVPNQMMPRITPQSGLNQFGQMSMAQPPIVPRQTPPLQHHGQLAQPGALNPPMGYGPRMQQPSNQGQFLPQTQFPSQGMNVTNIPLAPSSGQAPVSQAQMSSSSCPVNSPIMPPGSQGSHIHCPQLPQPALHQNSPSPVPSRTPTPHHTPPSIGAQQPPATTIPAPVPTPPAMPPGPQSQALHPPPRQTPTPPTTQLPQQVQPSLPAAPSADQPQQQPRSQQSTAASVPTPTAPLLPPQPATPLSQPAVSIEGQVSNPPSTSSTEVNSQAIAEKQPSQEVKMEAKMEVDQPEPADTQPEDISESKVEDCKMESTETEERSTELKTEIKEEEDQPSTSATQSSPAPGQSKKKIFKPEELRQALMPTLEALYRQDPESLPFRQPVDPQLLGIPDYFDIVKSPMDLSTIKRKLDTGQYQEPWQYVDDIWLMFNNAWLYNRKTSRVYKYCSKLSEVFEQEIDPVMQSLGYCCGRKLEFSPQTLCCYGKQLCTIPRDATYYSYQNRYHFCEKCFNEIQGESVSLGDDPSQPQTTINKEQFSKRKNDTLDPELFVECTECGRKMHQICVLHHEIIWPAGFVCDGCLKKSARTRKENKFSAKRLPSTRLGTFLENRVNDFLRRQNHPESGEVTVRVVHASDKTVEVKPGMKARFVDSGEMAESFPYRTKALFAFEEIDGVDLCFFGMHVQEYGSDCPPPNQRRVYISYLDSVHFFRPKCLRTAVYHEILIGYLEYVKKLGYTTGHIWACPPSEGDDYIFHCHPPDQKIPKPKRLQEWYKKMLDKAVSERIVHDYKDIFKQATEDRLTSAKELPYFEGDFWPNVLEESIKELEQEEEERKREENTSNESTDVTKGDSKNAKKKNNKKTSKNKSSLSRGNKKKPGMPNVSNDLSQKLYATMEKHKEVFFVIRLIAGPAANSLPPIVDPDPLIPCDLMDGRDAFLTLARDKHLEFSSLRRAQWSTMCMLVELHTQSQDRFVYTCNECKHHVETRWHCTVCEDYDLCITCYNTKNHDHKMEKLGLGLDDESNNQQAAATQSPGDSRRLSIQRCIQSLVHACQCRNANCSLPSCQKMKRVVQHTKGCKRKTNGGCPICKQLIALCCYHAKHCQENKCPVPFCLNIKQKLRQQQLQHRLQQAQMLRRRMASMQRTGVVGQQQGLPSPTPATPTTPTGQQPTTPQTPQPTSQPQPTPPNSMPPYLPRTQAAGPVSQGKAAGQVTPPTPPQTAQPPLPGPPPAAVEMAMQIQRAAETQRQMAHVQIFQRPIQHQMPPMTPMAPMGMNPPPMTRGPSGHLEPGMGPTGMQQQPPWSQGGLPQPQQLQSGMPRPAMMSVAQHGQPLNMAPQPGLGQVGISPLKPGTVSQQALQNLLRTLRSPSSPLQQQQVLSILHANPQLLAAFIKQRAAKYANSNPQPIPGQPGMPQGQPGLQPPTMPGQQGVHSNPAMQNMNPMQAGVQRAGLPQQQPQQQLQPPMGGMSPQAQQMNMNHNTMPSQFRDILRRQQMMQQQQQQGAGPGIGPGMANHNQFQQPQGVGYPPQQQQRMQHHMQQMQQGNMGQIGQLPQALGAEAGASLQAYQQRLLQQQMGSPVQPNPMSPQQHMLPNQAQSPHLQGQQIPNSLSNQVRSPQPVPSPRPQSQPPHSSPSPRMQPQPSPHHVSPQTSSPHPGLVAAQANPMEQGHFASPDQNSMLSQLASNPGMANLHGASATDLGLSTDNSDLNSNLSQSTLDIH

Row | Dmax (p300) [%] | DC50 (p300) [nM] | DC50 (CBP) [nM] | Dmax (CBP) [%] | SMILES
1 | > 80 | 1 to 9.9 | 1 to 9.9 | 60 to 79 | CC(C)c1cc(-c2cccc3cc(-c4ccc(C(=O)NCC#Cc5ccc6[nH]nc(C7CCC(=O)NC7=O)c6c5)nc4)ncc23)cc2c1n(C)c(=O)n2C (centres unmarked) [Example A204, N-(3-(3-(2,6-dioxo-piperidin-3-yl)-1H-indazol-5-yl)prop-2-yn-1-yl)-5-(8-(7-isopropyl-1,3-dimethyl-2-oxo-2,3-dihydro-1H-benzo [d]imidazol-5-yl)isoquinolin-3-yl)picolinamide]
2 | > 80 | < 1 | 100 to 999 | < 20 | COc1nc(-c2cnc(C(=O)NCC#Cc3cc4c(C5CCC(=O)NC5=O)cccc4o3)c(C)c2)ncc1Nc1cc(C2CCOCC2)c2c(c1)n(C)c(=O)n2C (centres unmarked) [Example A207, 5-(5-((1,3-dimethyl-2-oxo-7-(tetrahydro-2H-pyran-4-yl)-2,3-dihydro-1H-benzo[d]imidazol-5-yl)amino)-4-methoxypyrimidin-2-yl)-N-(3-(4-(2,6-dioxopiperidin-3-yl)benzofuran-2-yl)prop-2-yn-1-yl)-3-methylpicolinamide]
3 | > 80 | 1 to 9.9 | 10 to 99 | 60 to 79 | CC(C)c1cc(-c2cccc3cc(-c4ccc(C(=O)NCC#Cc5cc6c(C7CCC(=O)NC7=O)nccc6s5)nc4)ncc23)cc2c1n(C)c(=O)n2C (centres unmarked) [Example A208, N-(3-(4-(2,6-dioxo-piperidin-3-yl)thieno[3,2-c]pyridin-2-yl)prop-2-yn-1-yl)-5-(8-(7-isopropyl-1,3-dimethyl-2-oxo-2,3-dihydro-1H-benzo[d]imidazol-5-yl)isoquinolin-3-yl)picolinamide]
4 | > 80 | 1 to 9.9 | > 1000 | < 20 | CC(C)c1cc(N(C)c2cnc(-c3ccc(C(=O)NCC#Cc4ccc5cnn(C6CCC(=O)NC6=O)c5c4)nc3)nc2)cc2c1n(C)c(=O)n2C (centres unmarked) [Example A211, N-(3-(1-(2,6-dioxo-piperidin-3-yl)-1H-indazol-6-yl)prop-2-yn-1-yl)-5-(5-((7-isopropyl-1,3-dimethyl-2-oxo-2,3-dihydro-1H-benzo [d]imidazol-5-yl)(methyl)amino)pyrimidin-2-yl)picolinamide]
5 | > 80 | 1 to 9.9 | > 1000 | < 20 | CC(C)c1cc(-c2cccc3cc(-c4ccc(C(=O)NCC#Cc5ccc6occ(C78CC(C7)C(=O)NC8=O)c6c5)nc4)ncc23)cc2c1n(C)c(=O)n2C [Example A212, N-(3-(3-(2,4-dioxo-3-azabicyclo[3.1.1]heptan-1-yl)benzofuran-5-yl)prop-2-yn-1-yl)-5-(8-(7-isopropyl-1,3-dimethyl-2-oxo-2,3-dihydro-1H-benzo[d]imidazol-5-yl)isoquinolin-3-yl)picolinamide]
6 | > 80 | < 1 | > 1000 | < 20 | Cn1c(=O)n(C)c2cc(-c3cccc4cc(-c5ccc(C(=O)NCC#Cc6cc7c(C8CCC(=O)NC8=O)nccc7o6)nc5)ncc34)ccc21 (centres unmarked) [Example A213, 5-(8-(1,3-dimethyl-2-oxo-2,3-dihydro-1H-benzo[d]imidazol-5-yl)isoquinolin-3-yl)-N-(3-(4-(2,6-dioxo-piperidin-3-yl)furo[3,2-c]pyridin-2-yl)prop-2-yn-1-yl)picolinamide]
7 | > 80 | 1 to 9.9 | > 1000 | < 20 | CC(C)c1cc(-c2cccc3cc(-c4ccc(C(=O)NCC#Cc5cc6cccc(C7CCC(=O)NC7=O)c6o5)nc4)ncc23)cc2c1n(C)c(=O)n2C (centres unmarked) [Example A216, N-(3-(7-(2,6-dioxo-piperidin-3-yl)benzofuran-2-yl)prop-2-yn-1-yl)-5-(8-(7-isopropyl-1,3-dimethyl-2-oxo-2,3-dihydro-1H-benzo [d]imidazol-5-yl)isoquinolin-3-yl)picolinamide]
8 | > 80 | < 1 | 100 to 999 | < 20 | Cc1cc(N2CCN(C)c3nc(-c4ccc(C(=O)NCC#Cc5cc6c(C7CCC(=O)NC7=O)cccc6o5)nc4)ncc32)cc2c1n(C)c(=O)n2C (centres unmarked) [Example A219, N-(3-(4-(2,6-dioxo-piperidin-3-yl)benzofuran-2-yl)prop-2-yn-1-yl)-5-(8-methyl-5-(1,3,7-trimethyl-2-oxo-2,3-dihydro-1H-benzo[d]imidazol-5-yl)-5,6,7,8-tetrahydro-pteridin-2-yl)picolinamide]
9 | > 80 | 1 to 9.9 | > 1000 | < 20 | CC(C)c1cc(-c2cccc3cc(-c4ccc(C(=O)NCC#Cc5cnc6c(c5)c(C5CCC(=O)NC5=O)nn6C)nc4)ncc23)cc2c1n(C)c(=O)n2C (centres unmarked) [Example A221, N-(3-(3-(2,6-dioxo-piperidin-3-yl)-1-methyl-1H-pyrazolo [3,4-b]pyridin-5-yl)prop-2-yn-1-yl)-5-(8-(7-isopropyl-1,3-dimethyl-2-oxo-2,3-dihydro-1H-benzo[d]imidazol-5-yl)isoquinolin-3-yl)picolinamide]
10 | > 80 | < 1 | 100 to 999 | < 20 | Cn1c(=O)n(C)c2c(N3CCOCC3)nc(-c3cccc4cc(-c5ccc(C(=O)NCC#Cc6cc7c(C8CCC(=O)NC8=O)cccc7o6)nc5)ncc34)cc21 (centres unmarked) [Example A223, 5-(8-(1,3-dimethyl-4-morpholino-2-oxo-2,3-dihydro-1H-imidazo[4,5-c]pyridin-6-yl)isoquinolin-3-yl)-N-(3-(4-(2,6-dioxopiperidin-3-yl)benzofuran-2-yl)prop-2-yn-1-yl)picolinamide]
11 | > 80 | < 1 | 100 to 999 | < 20 | Cn1c(=O)n(C)c2cc(N3CCCc4nc(-c5ccc(C(=O)NCC#Cc6cc7c(C8CCC(=O)NC8=O)cccc7o6)nc5)ncc43)ccc21 (centres unmarked) [Example A226, 5-(5-(1,3-dimethyl-2-oxo-2,3-dihydro-1H-benzo[d]imidazol-5-yl)-5,6,7,8-tetrahydropyrido [3,2-d]pyrimidin-2-yl)-N-(3-(4-(2,6-dioxo-piperidin-3-yl)benzofuran-2-yl)prop-2-yn-1-yl)picolinamide]
12 | > 80 | 1 to 9.9 | > 1000 | < 20 | CC(C)c1cc(-c2cccc3cc(-c4ccc(C(=O)NCC#Cc5cc6c(C7CCC(=O)NC7=O)coc6cc5F)nc4)ncc23)cc2c1n(C)c(=O)n2C (centres unmarked) [Example A234, N-(3-(3-(2,6-dioxo-piperidin-3-yl)-6-fluorobenzofuran-5-yl)prop-2-yn-1-yl)-5-(8-(7-isopropyl-1,3-dimethyl-2-oxo-2,3-dihydro-1H-benzo [d]imidazol-5-yl)isoquinolin-3-yl)picolinamide]
13 | > 80 | < 1 | 100 to 999 | < 20 | CC(C)c1cc(N2CCCc3nc(-c4ccc(C(=O)NCC#Cc5cc6c(C7CCC(=O)NC7=O)cccc6o5)nc4)ncc32)cc2c1n(C)c(=O)n2C (centres unmarked) [Example A237, N-(3-(4-(2,6-dioxo-piperidin-3-yl)benzofuran-2-yl)prop-2-yn-1-yl)-5-(5-(7-isopropyl-1,3-dimethyl-2-oxo-2,3-dihydro-1H-benzo [d]imidazol-5-yl)-5,6,7,8-tetrahydro-pyrido[3,2-d]pyrimidin-2-yl)picolinamide]
14 | > 80 | < 1 | 1 to 9.9 | 40 to 59 | Cc1cc(-c2cc3c(cn2)N(c2cc(C(C)C)c4c(c2)n(C)c(=O)n4C)CCC3)cnc1C(=O)NCC#Cc1ccn2ncc(C3CCC(=O)NC3=O)c2c1 (centres unmarked) [Example A238, N-(3-(3-(2,6-dioxo-piperidin-3-yl)pyrazolo[1,5-a]pyridin-5-yl)prop-2-yn-1-yl)-5-(1-(7-isopropyl-1,3-dimethyl-2-oxo-2,3-dihydro-1H-benzo[d]imidazol-5-yl)-1,2,3,4-tetrahydro-1,7-naphthyridin-6-yl)-3-methylpicolinamide]
15 | > 80 | 1 to 9.9 | > 1000 | < 20 | Cn1nc(C2CCC(=O)NC2=O)c2cc(C#CCNC(=O)c3ccc(-c4ncc5c(n4)OCCN5c4ccc5c(c4)n(C)c(=O)n5C)cn3)ccc21 (centres unmarked) [Example A243, 5-(5-(1,3-dimethyl-2-oxo-2,3-dihydro-1H-benzo[d]imidazol-5-yl)-6,7-dihydro-5H-pyrimido[4,5-b][1,4]oxazin-2-yl)-N-(3-(3-(2,6-dioxopiperidin-3-yl)-1-methyl-1H-indazol-5-yl)prop-2-yn-1-yl)picolinamide]
16 | 20 to 39 | 10 to 99 | > 1000 | < 20 | Cn1c(=O)n(C)c2cc(N3CCOc4nc(-c5ccc(C(=O)NCC#Cc6cc7cccc(C8CCC(=O)NC8=O)c7o6)nc5)ncc43)ccc21 (centres unmarked) [Example A247, 5-(5-(1,3-dimethyl-2-oxo-2,3-dihydro-1H-benzo[d]imidazol-5-yl)-6,7-dihydro-5H-pyrimido[4,5-b][1,4]oxazin-2-yl)-N-(3-(7-(2,6-dioxopiperidin-3-yl)benzofuran-2-yl)prop-2-yn-1-yl) picolinamide]

Row | SMILES | Dmax (p300) [%] | DC50 (p300) [nM] | DC50 (CBP) [nM] | Dmax (CBP) [%]
17 | Cn1c(=O)n(C)c2c(N3CC4CC(C3)O4)nc(-c3cccc4cc(-c5ccc(C(=O)NCC#Cc6cc7c(C8CCC(=O)NC8=O)cccc7o6)nc5)ncc34)cc21 (centres unmarked) [Example A210, 5-(8-(4-(6-oxa-3-azabicyclo[3.1.1]heptan-3-yl)-1,3-dimethyl-2-oxo-2,3-dihydro-1H-imidazo[4,5-c]pyridin-6-yl)isoquinolin-3-yl)-N-(3-(4-(2,6-dioxopiperidin-3-yl)benzofuran-2-yl)prop-2-yn-1-yl)picolinamide] | > 80 | < 1 | > 1000 | < 20
